Experimental data published in ChEMBL document CHEMBL4261647, “Synthesis, DNA and protein interactions and human topoisomerase inhibition of novel Spiroacridine derivatives” (Bioorg Med Chem, 2018).

Columns and labels:
[1] = molecular target: T1, Albumin (Bos taurus, UniProt P02769); assay: Binding affinity to bovine serum albumin assessed as Stern-Volmer quenching constant by fluorescence spectroscopic analysis; assay type: ADME; settings: cattle, isolated protein
[2] = molecular target: DNA topoisomerase 2-alpha (Homo sapiens) (UniProt P11388); assay: Inhibition of recombinant human topoisomerase 2alpha assessed as decrease in relaxation of supercoiled pUC19 DNA at 100 uM after 30 mins by ethidium bromide staining based agarose gel electrophoresis relative to control
[3] = tested on: Calf thymus DNA; assay: Binding affinity to calf thymus DNA assessed as hypochromic effect up to 10 uM by UV-vis absorption spectral analysis; assay type: nucleic-acid assay; settings: Bos taurus
[4] = molecular target: T1, Albumin; assay: Binding affinity to bovine serum albumin assessed as decrease in protein fluorescence intensity up to 10 uM by fluorescence spectroscopic analysis; assay type: ADME; design: scale not given: the % may be the effect or the level left; settings: cattle, isolated protein
[5] = tested on: Calf thymus DNA; assay: Binding affinity to calf thymus DNA by UV-vis absorption spectral analysis; assay type: nucleic-acid assay; settings: Bos taurus
[6] = tested on: Calf thymus DNA; assay: Binding affinity to calf thymus DNA assessed as hyperchromic effect up to 10 uM by UV-vis absorption spectral analysis; assay type: nucleic-acid assay; settings: Bos taurus

DNA topoisomerase 2-alpha (Homo sapiens), sequence (P11388 whole entry): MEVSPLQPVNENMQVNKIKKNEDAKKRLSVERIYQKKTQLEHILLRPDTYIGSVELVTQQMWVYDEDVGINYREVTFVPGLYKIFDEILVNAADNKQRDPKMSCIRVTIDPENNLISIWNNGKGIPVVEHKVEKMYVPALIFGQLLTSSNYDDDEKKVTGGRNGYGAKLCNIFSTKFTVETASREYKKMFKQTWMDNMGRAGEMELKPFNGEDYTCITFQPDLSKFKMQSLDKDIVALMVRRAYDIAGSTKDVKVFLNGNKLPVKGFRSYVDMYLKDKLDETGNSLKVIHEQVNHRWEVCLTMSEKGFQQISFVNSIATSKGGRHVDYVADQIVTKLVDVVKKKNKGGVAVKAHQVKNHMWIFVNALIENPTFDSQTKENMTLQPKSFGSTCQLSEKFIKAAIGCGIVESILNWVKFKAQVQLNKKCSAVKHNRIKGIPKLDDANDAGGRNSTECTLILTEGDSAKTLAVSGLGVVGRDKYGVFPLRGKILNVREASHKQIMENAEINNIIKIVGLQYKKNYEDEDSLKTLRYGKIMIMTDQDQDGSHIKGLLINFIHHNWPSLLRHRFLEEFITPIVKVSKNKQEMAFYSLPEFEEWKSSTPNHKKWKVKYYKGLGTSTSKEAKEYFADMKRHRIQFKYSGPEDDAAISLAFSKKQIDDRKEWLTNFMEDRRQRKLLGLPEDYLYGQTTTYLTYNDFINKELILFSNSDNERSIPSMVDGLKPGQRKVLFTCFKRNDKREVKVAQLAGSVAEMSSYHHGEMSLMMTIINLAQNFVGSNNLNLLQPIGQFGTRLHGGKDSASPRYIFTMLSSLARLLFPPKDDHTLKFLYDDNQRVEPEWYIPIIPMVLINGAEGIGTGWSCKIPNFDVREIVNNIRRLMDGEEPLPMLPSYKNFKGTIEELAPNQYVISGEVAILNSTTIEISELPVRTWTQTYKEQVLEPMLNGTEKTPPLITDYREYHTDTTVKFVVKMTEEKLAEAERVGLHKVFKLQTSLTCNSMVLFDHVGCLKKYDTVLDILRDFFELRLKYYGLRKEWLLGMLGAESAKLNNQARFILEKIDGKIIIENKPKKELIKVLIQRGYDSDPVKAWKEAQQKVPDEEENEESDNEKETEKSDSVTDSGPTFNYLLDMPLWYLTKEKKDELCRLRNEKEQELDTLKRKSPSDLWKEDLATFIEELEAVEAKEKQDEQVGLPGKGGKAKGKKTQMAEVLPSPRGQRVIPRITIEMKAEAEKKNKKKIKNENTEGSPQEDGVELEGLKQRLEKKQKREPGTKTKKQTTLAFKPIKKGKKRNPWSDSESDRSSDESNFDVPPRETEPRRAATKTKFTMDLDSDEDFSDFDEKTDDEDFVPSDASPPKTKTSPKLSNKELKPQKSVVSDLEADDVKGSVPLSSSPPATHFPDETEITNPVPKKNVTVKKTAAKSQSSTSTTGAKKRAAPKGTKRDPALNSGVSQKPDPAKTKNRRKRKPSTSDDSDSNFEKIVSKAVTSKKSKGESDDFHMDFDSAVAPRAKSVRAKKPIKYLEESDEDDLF
T1 sequence (P02769 whole entry): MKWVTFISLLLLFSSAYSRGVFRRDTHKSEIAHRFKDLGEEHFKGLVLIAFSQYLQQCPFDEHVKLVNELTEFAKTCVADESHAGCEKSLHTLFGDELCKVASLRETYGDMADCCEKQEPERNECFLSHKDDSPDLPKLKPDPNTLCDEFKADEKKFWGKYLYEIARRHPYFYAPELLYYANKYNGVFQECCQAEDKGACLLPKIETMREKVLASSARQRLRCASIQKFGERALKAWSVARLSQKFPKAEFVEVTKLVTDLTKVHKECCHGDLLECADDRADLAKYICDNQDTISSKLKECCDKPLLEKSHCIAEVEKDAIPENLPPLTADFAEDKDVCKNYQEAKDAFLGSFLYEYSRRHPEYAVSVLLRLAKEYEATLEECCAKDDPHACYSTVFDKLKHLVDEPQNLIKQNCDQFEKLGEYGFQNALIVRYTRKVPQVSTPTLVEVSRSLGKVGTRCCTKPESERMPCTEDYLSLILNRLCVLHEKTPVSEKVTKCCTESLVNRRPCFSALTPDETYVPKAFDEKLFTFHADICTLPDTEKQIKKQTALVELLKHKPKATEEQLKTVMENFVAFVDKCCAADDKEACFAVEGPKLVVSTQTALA

| Structure (SMILES) | KSV [1] [×10⁴ /M] | inhibition [2] [%] | Activity [3] [%] | Activity [4] [%] | Kb [5] | Activity [6] [%] |
| --- | --- | --- | --- | --- | --- | --- |
| CN(C)c1ccc(/C=N/N2C(=O)C(C#N)=CC23c2ccccc2Nc2ccccc23)cc1 | 2.7 | 1.64 | 7.14 | 54.95 | 1.1 ×10⁸ /M |  |
| N#CC1=CC2(c3ccccc3Nc3ccccc32)N(/N=C/c2ccc([N+](=O)[O-])cc2)C1=O | 3.1 | 43.7 | 13.5 | 71.74 | 4.8 ×10⁶ /M |  |
| N#CC1=CC2(c3ccccc3Nc3ccccc32)N(/N=C/c2ccccc2)C1=O |  | 9.78 |  |  |  |  |
| N#CC1=CC2(c3ccccc3Nc3ccccc32)N(/N=C/c2ccc(Cl)cc2Cl)C1=O | 2 | 61.7 |  | 48.01 | 8.2 ×10⁵ /M | 65.3 |
| CCOc1cc(/C=N/N2C(=O)C(C#N)=CC23c2ccccc2Nc2ccccc23)ccc1O | 2.3 | 20.6 | 14.4 | 58.57 | 2.6 ×10⁵ /M |  |
| N#CC1=CC2(c3ccccc3Nc3ccccc32)N(/N=C/c2ccc(Cl)cc2)C1=O | 3.4 | 84.3 | 44.3 | 60.3 | 7.6 ×10⁵ /M |  |
| N#CC1=CC2(c3ccccc3Nc3ccccc32)N(/N=C/c2c(Cl)cccc2Cl)C1=O | 2.1 | 15.9 | 30 | 45.77 | 1.6 ×10⁵ /M |  |
| N#CC1=CC2(c3ccccc3Nc3ccccc32)N(/N=C/c2ccccc2[N+](=O)[O-])C1=O | 2.3 | 1.64 | 8.06 | 51.46 | 3.7 ×10⁵ /M |  |
| N#CC1=CC2(c3ccccc3Nc3ccccc32)N(/N=C/c2ccc(F)cc2)C1=O | 2.3 | 70.7 |  | 55.11 | 1.5 ×10⁵ /M | 45.8 |
| COc1ccc(/C=N/N2C(=O)C(C#N)=CC23c2ccccc2Nc2ccccc23)cc1 |  | 88.1 |  |  |  |  |
| COc1ccc(Br)cc1/C=N/N1C(=O)C(C#N)=CC12c1ccccc1Nc1ccccc12 | 1.9 | 1.64 | 100 | 42.53 | 6.7 ×10⁵ /M |  |
